One compound from patent US7638509B2, “Diene compounds and formulations” (priority 2003, dated 2009) can be followed below.

The structures appear in SMILES notation. Positions count from the first letter of the chain named.

Test [1] addresses T1, mutant AR (Homo sapiens, UniProt P10275, T878A).
T1 construct: LNCaP without transfection; endogenous in cells; host or cells: LNCaP
T1 sequence (P10275 1-920 T878A): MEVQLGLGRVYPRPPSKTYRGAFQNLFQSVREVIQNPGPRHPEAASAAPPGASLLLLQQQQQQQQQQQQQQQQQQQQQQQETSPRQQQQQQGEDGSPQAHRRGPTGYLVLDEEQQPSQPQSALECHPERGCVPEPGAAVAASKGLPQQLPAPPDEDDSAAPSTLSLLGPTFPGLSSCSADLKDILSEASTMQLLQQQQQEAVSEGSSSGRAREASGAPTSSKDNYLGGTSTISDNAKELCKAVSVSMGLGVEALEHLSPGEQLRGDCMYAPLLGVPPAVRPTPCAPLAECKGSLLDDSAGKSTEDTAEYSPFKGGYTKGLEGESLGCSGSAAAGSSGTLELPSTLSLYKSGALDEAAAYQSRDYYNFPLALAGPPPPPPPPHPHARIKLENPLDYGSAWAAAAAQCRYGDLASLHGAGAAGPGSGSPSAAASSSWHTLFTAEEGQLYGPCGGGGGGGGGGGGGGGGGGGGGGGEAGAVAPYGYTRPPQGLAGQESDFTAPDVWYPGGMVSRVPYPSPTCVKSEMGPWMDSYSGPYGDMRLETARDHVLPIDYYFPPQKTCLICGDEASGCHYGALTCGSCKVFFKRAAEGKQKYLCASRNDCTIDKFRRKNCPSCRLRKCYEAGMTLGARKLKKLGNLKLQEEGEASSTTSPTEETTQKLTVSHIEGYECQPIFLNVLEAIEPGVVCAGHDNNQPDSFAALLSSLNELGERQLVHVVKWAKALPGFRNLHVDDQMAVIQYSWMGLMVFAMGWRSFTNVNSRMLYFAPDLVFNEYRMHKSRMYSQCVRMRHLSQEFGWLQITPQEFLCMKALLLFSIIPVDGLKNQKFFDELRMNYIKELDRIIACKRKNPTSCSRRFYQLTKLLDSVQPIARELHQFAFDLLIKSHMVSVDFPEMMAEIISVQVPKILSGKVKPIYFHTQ
As to the kind of experiment: AR transcription, MMTV-Luc reporter in LNCaP cells. The class given is cell-based. To be noted: MMTV-Luc. As for the experimental part: Cell Culture, Transfection, and Reporter Gene Assay. The human prostate cancer cell lines, LNCaP, PC-3, and DU145, and non-prostate cancer cell line COS-1 were maintained in RPMI or Dulbecco's modified Eagle's medium (DMEM) (Life Technologies) supplemented with 10% fetal bovine serum (FBS). […] Briefly, cells seeded to reach a density of 50-60% confluence in 12 well tissue culture plates were transfected with 1.5 μg of DNA according to “SuperFect transfection” instructions (Qiagen). After 2-3 h incubation, cells were treated with medium supplemented with charcoal-stripped FBS containing either ethanol or ligands for 24 h. The cells were then harvested and whole cell extracts were used for Luc assay. The Luc activity was determined using a Dual-Luciferase Reporter Assay System (Promega) and luminometer.
The pSG5-AR was co-transfected in COS-1 cells. […] Values were obtained from the mean±SD of at least three determinations. DU145 cells were transfected with the pSG5-AR and MMTV-Luc in the presence or absence of pSG5-ARA70. […] Values were obtained for the mean±SD of at least three determinations.

Test [2] concerns the target T2, wild-type AR (Homo sapiens, UniProt P10275).
T2 sequence (P10275 1-920): T1 sequence (P10275 1-920 T878A) with A878T
The test is described as follows: Adiol-induced AR transcription, MMTV-Luc in PC-3 cells with pSG5-AR. Also noted: expressed in transfected cells; host or cells: PC-3. The class given is cell-based. The conditions noted are these: PC-3, 2.5 nM Adiol, compound at 1 μM. As for the experimental part: Cell Culture, Transfection, and Reporter Gene Assay. The human prostate cancer cell lines, LNCaP, PC-3, and DU145, and non-prostate cancer cell line COS-1 were maintained in RPMI or Dulbecco's modified Eagle's medium (DMEM) (Life Technologies) supplemented with 10% fetal bovine serum (FBS). Transfections and luciferase (Luc) assays were performed as previously described (Miyamoto, H., Yeh, S., Wilding, G. & Chang, C. (1998) Proc. Natl. Acad. Sci. USA 95, 7379-7384; Miyamoto, H., Rahman, M., Takatera, H., Kang, H.-Y., Yeh, S., Chang, H.-C., Nishimura, K., Fujimoto, N. & Chang, C. (2002) J. Biol. Chem. 277, 4609-4617). Briefly, cells seeded to reach a density of 50-60% confluence in 12 well tissue culture plates were transfected with 1.5 μg of DNA according to “SuperFect transfection” instructions (Qiagen). After 2-3 h incubation, cells were treated with medium supplemented with charcoal-stripped FBS containing either ethanol or ligands for 24 h. The cells were then harvested and whole cell extracts were used for Luc assay. The Luc activity was determined using a Dual-Luciferase Reporter Assay System (Promega) and luminometer.
Effect of ADEK on AR Transcription. […] (set as 100%). Values were obtained from the mean±SD of at least three determinations.

For the compound `CC(=O)O[C@H]1C=C[C@@]2(C)C(=CC[C@@H]3[C@@H]2CC[C@@]2(C)[C@H]3CCC23OCCO3)C1` [ADEK, 3β-acetoxy-17,17-ethylenedioxyandrosta-1,5-diene], the “DHT-induced mutant AR transcription suppressed to (DHT = 100%)” value in test [1] (1 nM DHT, dose-dependent) was determined as 17%. Moreover, the “agonist / androgenic activity on mutant AR transcription (in words)” value in test [1] (HF at 10 μM) is on record as “lower than that of casodex”. Also, in test [2], the “repression of Adiol-induced AR transcription” value is reported as “about 43%”.
